Target: T1, TRAP1 enzyme (Homo sapiens, UniProt Q12931)
T1 sequence (Q12931 60-704): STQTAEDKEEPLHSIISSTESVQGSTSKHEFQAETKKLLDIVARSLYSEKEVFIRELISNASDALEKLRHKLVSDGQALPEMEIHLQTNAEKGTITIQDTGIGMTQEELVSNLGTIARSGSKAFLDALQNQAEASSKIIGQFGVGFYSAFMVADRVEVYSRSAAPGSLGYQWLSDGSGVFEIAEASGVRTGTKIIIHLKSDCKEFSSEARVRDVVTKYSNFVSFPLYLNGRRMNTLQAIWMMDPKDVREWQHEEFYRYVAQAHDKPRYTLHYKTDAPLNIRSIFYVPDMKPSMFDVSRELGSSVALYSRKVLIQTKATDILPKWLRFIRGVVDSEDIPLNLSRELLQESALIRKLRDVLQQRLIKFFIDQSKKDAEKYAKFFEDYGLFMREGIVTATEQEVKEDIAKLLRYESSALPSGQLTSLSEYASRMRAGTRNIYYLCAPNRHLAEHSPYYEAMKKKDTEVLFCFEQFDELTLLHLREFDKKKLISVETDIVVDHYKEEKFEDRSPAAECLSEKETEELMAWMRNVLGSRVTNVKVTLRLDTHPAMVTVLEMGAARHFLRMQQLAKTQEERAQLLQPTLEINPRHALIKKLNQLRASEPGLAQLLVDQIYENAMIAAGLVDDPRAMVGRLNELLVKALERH
Assay: ADP Glo assay (ATPase activity of TRAP1)
Type: biochemical
Settings: for EC50: 150 nM Trap1, 20 µM ATP, concentration for half maximal activation, read-out: ADP GLO DRC: GeoMean EC50; for Emax: maximal percent activation, read-out: ADP GLO DRC: Mean Emax
Method: Potency of test compounds to modulate the ATPase activity of TRAP1 enzyme was evaluated using ADP Glo assay. The assay is based on quantification of the ADP generated from ATP in the ATPase reaction. The assay is performed in two steps; first, after the ATPase reaction, an equal volume of ADP-Glo™ Reagent is added to terminate the ATPase reaction and deplete the remaining ATP. Second, the Kinase Detection Reagent is added to simultaneously convert ADP to ATP and allow the newly synthesized ATP to be measured using a luciferase/luciferin reaction.
All the assays were carried out in a 384-well Proxiplate. The buffer used was 25 mM Pipes pH-7.5, 40 mM KCl, 0.05 mM MgCl2, 0.025 % BSA, 0.316 mM EGTA, 0.003% Empigen, 0.01% Igepal. 150 nM Trap1 enzyme was incubated with various concentrations of the test compound (0.79 µM - 100 µM) at 37° C. for 30 mins (except in blank wells). 20 µM ATP was added to each well to start the reaction. The plate was spun for 1 min at 1200 rpm and then incubated at 37° C. for 60 mins. 5 µl of ADP Glo reagent was added to all the wells and spun the plate for 1 min at 1200 rpm and kept it on a shaker at ambient temperature for 60 mins. 10 µl of kinase detection mix was added to all the wells and the plate was read for Luminescence at 495 nm. The amount of ADP released was estimated from ATP/ADP standard curve generated at the same experimental conditions. Emax (Maximal percent activation) and EC50 (concentration for half maximal activation ) were estimated by fitting the dose response data to a sigmoidal curve fitting equation using Graphpad Prism software V. 8.

Row | EC50 [µM] | Emax [%] | SMILES
1 | < 20 | 129 to 149 | O=C(Nc1ccc2c(c1)S(=O)(=O)N(c1ccc(C(F)(F)F)cc1)CCO2)c1cscn1 [Compound 2184]
2 | 30 to 100 | > 200 | O=C(Nc1ccc2c(c1)S(=O)(=O)N(c1ccc(C(F)(F)F)cc1)CCO2)c1cc[nH]c(=O)c1 [Compound 2187]
3 | 30 to 100 | > 200 | O=C(Nc1ccc2c(c1)S(=O)(=O)N(c1ccc(C(F)(F)F)cc1)CCO2)c1cc(=O)cco1 [Compound 2190]
4 | < 20 | 150 to 200 | Cc1cncc(C(=O)Nc2ccc3c(c2)S(=O)(=O)N(c2ccc(C(F)(F)F)cc2)CCO3)c1 [Compound 2191]
5 | 20 to 30 | 129 to 149 | CC(C)n1cc(C(=O)Nc2ccc3c(c2)S(=O)(=O)N(c2ccc(C(F)(F)F)cc2)CCO3)cn1 [Compound 2192]
6 | < 20 | 129 to 149 | O=C(Nc1ccc2c(c1)S(=O)(=O)N(c1ccc(C(F)(F)F)cc1)CCO2)c1ccc(O)nn1 [Compound 2194]
7 | 30 to 100 | 129 to 149 | O=C(Nc1ccc2c(c1)S(=O)(=O)N(c1ccc(C(F)(F)F)cc1)CCO2)c1ccccn1 [Compound 2197]
8 | 20 to 30 | 150 to 200 | O=C(Nc1ccc2c(c1)S(=O)(=O)N(c1ccc(C(F)(F)F)cc1)CCO2)c1c(F)cncc1F [Compound 2198]
9 | 20 to 30 | 150 to 200 | Cc1cnccc1C(=O)Nc1ccc2c(c1)S(=O)(=O)N(c1ccc(C(F)(F)F)cc1)CCO2 [Compound 2199]
10 | 30 to 100 | 150 to 200 | Cc1ncc(C(=O)Nc2ccc3c(c2)S(=O)(=O)N(c2ccc(C(F)(F)F)cc2)CCO3)cn1 [Compound 2200]
11 | 30 to 100 | 150 to 200 | CC(C)c1oncc1C(=O)Nc1ccc2c(c1)S(=O)(=O)N(c1ccc(C(F)(F)F)cc1)CCO2 [Compound 2202]
12 | 30 to 100 | 150 to 200 | Cc1ncncc1C(=O)Nc1ccc2c(c1)S(=O)(=O)N(c1ccc(C(F)(F)F)cc1)CCO2 [Compound 2206]
13 | 20 to 30 | 129 to 149 | COc1cnccc1C(=O)Nc1ccc2c(c1)S(=O)(=O)N(c1ccc(C(F)(F)F)cc1)CCO2 [Compound 2209]
14 | < 20 | 150 to 200 | Cc1cnc(C(=O)Nc2ccc3c(c2)S(=O)(=O)N(c2ccc(C(F)(F)F)cc2)CCO3)nc1 [Compound 2210]
15 | < 20 | 150 to 200 | CCn1cncc1C(=O)Nc1ccc2c(c1)S(=O)(=O)N(c1ccc(C(F)(F)F)cc1)CCO2 [Compound 2213]
16 | 30 to 100 | 129 to 149 | Cc1nccnc1C(=O)Nc1ccc2c(c1)S(=O)(=O)N(c1ccc(C(F)(F)F)cc1)CCO2 [Compound 2215]
17 | 30 to 100 | > 200 | Cc1nn(C)cc1C(=O)Nc1ccc2c(c1)S(=O)(=O)N(c1ccc(C(F)(F)F)cc1)CCO2 [Compound 2219]
18 | 30 to 100 | 150 to 200 | Cn1c(C(=O)Nc2ccc3c(c2)S(=O)(=O)N(c2ccc(C(F)(F)F)cc2)CCO3)cccc1=O [Compound 2221]
19 | < 20 | 150 to 200 | COc1cc(C(=O)Nc2ccc3c(c2)S(=O)(=O)N(c2ccc(C(F)(F)F)cc2)CCO3)n(C)n1 [Compound 2222]
20 | 30 to 100 | 150 to 200 | O=C(Nc1ccc2c(c1)S(=O)(=O)N(c1ccc(C(F)(F)F)cc1)CCO2)c1cccnn1 [Compound 2224]
21 | 30 to 100 | 150 to 200 | Cn1nncc1C(=O)Nc1ccc2c(c1)S(=O)(=O)N(c1ccc(C(F)(F)F)cc1)CCO2 [Compound 2226]
22 | < 20 | 129 to 149 | Cc1nscc1C(=O)Nc1ccc2c(c1)S(=O)(=O)N(c1ccc(C(F)(F)F)cc1)CCO2 [Compound 2227]

Row | EC50 [µM] | Emax [%] | SMILES
23 | 20 to 30 | 129 to 149 | Cn1nc(C(=O)Nc2ccc3c(c2)S(=O)(=O)N(c2ccc(C(F)(F)F)cc2)CCO3)ccc1=O [Compound 2228]
24 | 20 to 30 | 150 to 200 | COc1nccnc1C(=O)Nc1ccc2c(c1)S(=O)(=O)N(c1ccc(C(F)(F)F)cc1)CCO2 [Compound 2230]
25 | 20 to 30 | 150 to 200 | O=C(Nc1ccc2c(c1)S(=O)(=O)N(c1ccc(C(F)(F)F)cc1)CCO2)c1ccncc1 [Compound 2234]
26 | 30 to 100 | 150 to 200 | Cc1ncc(C(=O)Nc2ccc3c(c2)S(=O)(=O)N(c2ccc(C(F)(F)F)cc2)CCO3)c(C)n1 [Compound 2236]
27 | 30 to 100 | 150 to 200 | O=C(Nc1ccc2c(c1)S(=O)(=O)N(c1ccc(C(F)(F)F)cc1)CCO2)c1cccnc1 [Compound 2240]
28 | 20 to 30 | 150 to 200 | Cn1cc(C(=O)Nc2ccc3c(c2)S(=O)(=O)N(c2ccc(C(F)(F)F)cc2)CCO3)cn1 [Compound 2241]
29 | 30 to 100 | > 200 | Cc1nnccc1C(=O)Nc1ccc2c(c1)S(=O)(=O)N(c1ccc(C(F)(F)F)cc1)CCO2 [Compound 2242]
30 | 20 to 30 | 129 to 149 | COc1ncncc1C(=O)Nc1ccc2c(c1)S(=O)(=O)N(c1ccc(C(F)(F)F)cc1)CCO2 [Compound 2245]
31 | 30 to 100 | 150 to 200 | Cc1nc(C)c(C(=O)Nc2ccc3c(c2)S(=O)(=O)N(c2ccc(C(F)(F)F)cc2)CCO3)s1 [Compound 2248]
32 | 30 to 100 | 150 to 200 | Cn1cnc(C(=O)Nc2ccc3c(c2)S(=O)(=O)N(c2ccc(C(F)(F)F)cc2)CCO3)c1 [Compound 2249]
33 | < 20 | 129 to 149 | CCn1nccc1C(=O)Nc1ccc2c(c1)S(=O)(=O)N(c1ccc(C(F)(F)F)cc1)CCO2 [Compound 2254]
34 | 30 to 100 | 150 to 200 | COCc1oncc1C(=O)Nc1ccc2c(c1)S(=O)(=O)N(c1ccc(C(F)(F)F)cc1)CCO2 [Compound 2257]
35 | 20 to 30 | 129 to 149 | CC(C)n1cnc(C(=O)Nc2ccc3c(c2)S(=O)(=O)N(c2ccc(C(F)(F)F)cc2)CCO3)n1 [Compound 2258]
36 | 30 to 100 | 150 to 200 | Cc1ccnc(C(=O)Nc2ccc3c(c2)S(=O)(=O)N(c2ccc(C(F)(F)F)cc2)CCO3)n1 [Compound 2261]
37 | 20 to 30 | 129 to 149 | O=C(Nc1ccc2c(c1)S(=O)(=O)N(c1ccc(C(F)(F)F)cc1)CCO2)c1cnccc1F [Compound 2264]
38 | < 20 | 150 to 200 | CCc1nn(C)cc1C(=O)Nc1ccc2c(c1)S(=O)(=O)N(c1ccc(C(F)(F)F)cc1)CCO2 [Compound 2265]
39 | < 20 | 150 to 200 | Cn1cccc(C(=O)Nc2ccc3c(c2)S(=O)(=O)N(c2ccc(C(F)(F)F)cc2)CCO3)c1=O [Compound 2268]
40 | 30 to 100 | 150 to 200 | Cc1cnncc1C(=O)Nc1ccc2c(c1)S(=O)(=O)N(c1ccc(C(F)(F)F)cc1)CCO2 [Compound 2275]
41 | 30 to 100 | 150 to 200 | O=C(Nc1ccc2c(c1)S(=O)(=O)N(c1ccc(C(F)(F)F)cc1)CCO2)c1cccnc1O [Compound 2280]
42 | 30 to 100 | > 200 | Cc1ncccc1C(=O)Nc1ccc2c(c1)S(=O)(=O)N(c1ccc(C(F)(F)F)cc1)CCO2 [Compound 2286]
43 | < 20 | 150 to 200 | COc1cccnc1C(=O)Nc1ccc2c(c1)S(=O)(=O)N(c1ccc(C(F)(F)F)cc1)CCO2 [Compound 2288]
44 | 30 to 100 | > 200 | O=C(Nc1ccc2c(c1)S(=O)(=O)N(c1ccc(C(F)(F)F)cc1)CCO2)c1ccnc(CO)c1 [Compound 2290]

Reference: US20230218632A1, “CYCLIC SULFONAMIDE DERIVATIVES AS TRAP1 MODULATORS AND USES THEREOF” (Amathus Therapeutics, Inc., priority 2020, published 2023)
